Assay results reported in paper PMC9274090, “Molecular Modeling of ABHD5 Structure and Ligand Recognition” (Frontiers in Molecular Biosciences, 2022).
Where two headings read alike, the source gives them in different places.

Biological target: T1, Alpha/beta hydrolase domain-containing 5 (ABHD5, CGI-58) (Mus musculus, UniProt Q9DBL9)
T1 construct: ABHD5 fused to C-terminal fragment of G. princeps luciferase
T1 sequence (Q9DBL9 1-351): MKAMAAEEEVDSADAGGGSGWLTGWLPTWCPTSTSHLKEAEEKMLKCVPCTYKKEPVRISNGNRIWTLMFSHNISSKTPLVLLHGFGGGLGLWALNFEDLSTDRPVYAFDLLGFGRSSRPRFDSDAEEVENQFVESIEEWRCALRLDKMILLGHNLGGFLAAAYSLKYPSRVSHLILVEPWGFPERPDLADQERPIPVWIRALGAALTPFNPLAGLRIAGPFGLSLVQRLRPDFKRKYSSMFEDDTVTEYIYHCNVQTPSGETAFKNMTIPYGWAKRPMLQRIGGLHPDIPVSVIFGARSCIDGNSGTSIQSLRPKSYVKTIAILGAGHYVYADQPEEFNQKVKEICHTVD
T1 sequence (Q8BVZ1 1-463 partner): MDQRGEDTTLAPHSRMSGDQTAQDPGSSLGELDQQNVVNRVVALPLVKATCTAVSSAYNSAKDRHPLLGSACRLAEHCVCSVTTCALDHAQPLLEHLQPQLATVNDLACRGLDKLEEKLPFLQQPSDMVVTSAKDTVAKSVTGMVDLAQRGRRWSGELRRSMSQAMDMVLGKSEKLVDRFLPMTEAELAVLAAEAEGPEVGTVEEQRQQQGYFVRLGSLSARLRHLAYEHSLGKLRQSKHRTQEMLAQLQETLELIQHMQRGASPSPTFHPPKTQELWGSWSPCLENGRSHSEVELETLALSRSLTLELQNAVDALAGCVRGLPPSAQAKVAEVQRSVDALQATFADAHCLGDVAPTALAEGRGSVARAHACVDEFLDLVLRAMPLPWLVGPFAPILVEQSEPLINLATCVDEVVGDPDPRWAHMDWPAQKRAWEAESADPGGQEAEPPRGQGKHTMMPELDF
Test: split luciferase complementation in cell lysates: ligand-induced dissociation of ABHD5-PLIN5
Type: biochemical

Row | SMILES | IC50 [µM] | IC50 (read-out: IC50) [µM]
1 | Cc1ccc2c(CC(=O)N3CCN(S(=O)(=O)c4ccc5c(c4)OCCO5)CC3)coc2c1 [SR4559, SR-01000604559] | 3.44 | –
2 | O=C(Cc1cccc(F)c1)N1CCN(S(=O)(=O)c2ccc3c(c2)OCCO3)CC1 [SR3133, SR-03000003133] | – | 15.9
3 | COc1ccc(CC(=O)N2CCN(S(=O)(=O)c3ccc4c(c3)OCCCO4)CC2)cc1 [SR3134, SR-03000003134] | – | 8.9
